Measured values reported in patent US10059955B2, “Hibiscus cannabinus feruloyl-CoA:monolignol transferase” (Wisconsin Alumni Research Foundation (WARF), priority 2011, dated 2018).
Entries after “also recorded” stand apart in the source; their conditions may differ.

B1: Angelica sinensis FMT: Angelica sinensis clone Dq155 pdest17 feruloyl-CoA:monolignol transferase enzyme, SEQ ID NO:2 (protein)
chain: MTIMEVQVVSKKMVKPSVPTPDHHKTCKLTAFDQIAPPDQVPIIYFYNSSNIHNIREQLVKSLSETLTKFYPLAGRFVQDGFYVDCNDEGVLYVEAEVNIPLNEFIGQAKKNIQLINDLVPKKNFKDIHSYENPIVGLQMSYFKCGGLAICMYLSHVVADGYTAAAFTKEWSNTTNGIINGDQLVSSSPINFELATLVPARDLSTVIKPAVMPPSKIKETKVVTRRFLFDENAISAFKDHVIKSESVNRPTRVEVVTSVLWKALINQSKLPSSTLYFHLNFRGKTGINTPPLDNHFSLCGNFYTQVPTRFRGGNQTKQDLELHELVKLLRGKLRNTLKNCSEINTADGLFLEAASNFNIIQEDLEDEQVDVRIFTTLCRMPLYETEFGWGKPEWVTIPEMHLEIVFLLDTKCGTGIEALVSMDEADMLQFELDPTISAFAS
B2: Hibiscus cannabinus FMT: Hibiscus cannabinus (Kenaf) feruloyl-CoA:monolignol transferase enzyme, SEQ ID NO:9, expressed with N-terminal 6xHis tag in E. coli (protein)
chain: MATHSTIMFSVDRNDVVFVKPFKPTPSQVLSLSTIDNDPNLEIMCHTVFVYQANADFDVKPKDPASIIQEALSKLLVYYYPLAGKMKRETDGKLRIACTADDSVPFLVATADCKLSSLNHLDGIDVHTGKEFALDFASESDGGYYHPLVMQVTKFICGGFTIALSLSHSVCDGFGAAQIFQALTELASGRNEPSVKPVWERQLLVAKPAEEIPRSIVDKDLSAASPYLPTTDIVHACFYVTEESIKTLKMNLIKESKDESITSLEVLSAYIWRARFRALKLSPDKTTMLGMAVGIRRTVKPRLPEGYYGNAFTSANTAMTGKELDQGPLSKAVKQIKESKKLASENDYIWNLMSINEKLRELNSKFEAAAGSTMVITDWRRLGLLEDVDFGWKGSVNMIPLPWNMFGYVDLVLLLPPCKLDQSMKGGARVLVSFPTAAIAKFKEEMDALKHDNKVAGDALVI
modifications: N-terminal 6xHis tag

Key:
[1] = system: feruloyl-CoA:monolignol transferase from Angelica sinensis; test: FMT enzymatic assay with purified recombinant Angelica sinensis FMT (UPLC detection of product); assay type: biochemical; conditions: for product formed from acyl-CoA donor substrate: coniferyl alcohol as acceptor, FIGS. 2, 6, 7; for enzyme activity with monolignol as acyl acceptor substrate: feruloyl-CoA as acyl donor, FIGS. 2, 4, 5
Procedure: The feruloyl-CoA, p-coumaroyl-CoA, and caffeoyl-CoA substrates used in the FMT assay were enzymatically synthesized using the tobacco 4-coumarate-CoA-ligase (4CL) with a c-terminal HIS tag in pCRT7/CT TOPO, provided by Eran Pichersky. Following a method modified from Beuerle and Pichersky (Anal. Biochem. 302(2): 305-12 (2001)) 3.3 mg of ferulic acid, coumaric acid or caffeic acid, 2 mg coenzyme A, and 6.9 mg ATP were added to 50 mM Tris-hydrochloride pH 8 and 2.5 mM magnesium chloride in a final volume of 10 ml. The reaction was started by adding 0.25 mg 4CL, protein purified as described by the method of Beurerle and Pichershy. After a five-hour incubation at room temperature, additional 6.9 mg ATP, 2 mg coenzyme A, and 0.25 mg purified 4CL were added and the reaction was incubated overnight. The CoA esters were purified on an SPE cartridge as described in Beuerle and Pichersky (2001).
(§1) The FMT activity assay contained 100 mM MOPS pH 6.8, 1 mM dithiothreitol (DTT), 1 mM feruloyl-CoA, 1 mM coniferyl alcohol, 3.9 μg of purified FMT protein and deionized water to a volume of 50 μL. After a 30-minute incubation, 1 μL of 10 M hydrochloric acid was added to stop the reaction. Because the product synthesized in the reaction, coniferyl ferulate (CAFA), is insoluble, 50 μL of methanol was added to solubilize the CAFA. Prior to UPLC, protein and insoluble material were removed by filtering through an Amicon Ultracel 10K membrane filter (Millipore). The flow-through was analyzed using an Acquity Ultra Performance LC with an Acquity UPLC BEH C18 1.7 μm 2.1×100 mm column and the Acquity Console and Empower 2 Software, all from Waters Corporation. The solvents used in this method were solvent A, 0.1% trifluoroacetic acid, and solvent B, 100% acetonitrile. Samples were analyzed using the following gradient conditions, 13% B, for 5 minutes, 1 minute linear gradient to 42% B, held for 4 minutes, 1 minute linear gradient to 100% B, held for 1 minutes and 3 minutes at 13% B with a flow rate of 0.3 ml/minute. This method was then used to analyze a 10 μL injection of each assay reaction; standards for each of the substrates along with chemically synthesized CAFA were used to determine retention times for each compound.
Purified recombinant enzyme was assayed for FMT activity using a reaction mixture containing 2 mM coniferyl alcohol, […], 100 mM HEPES pH 7.4 and 1 mM DTT. The second most abundant BAHD acyltransferase gene when incubated with Coniferyl alcohol and feruloyl-CoA produced a compound with the retention time of authentic coniferyl ferulate (CAFA) (FIG. 2). […] The addition of methanol to 50% after stopping the enzyme with acid was required to analyze the product by UPLC. The insolubility of the product made partial purification easy as the product was separated from the substrates by centrifugation.

[2] = Solubility of the assay product coniferyl ferulate in the aqueous reaction mixture; assay type: physicochemical; conditions: before addition of methanol to 50%
Procedure: as §1, with “compound. […]” for “compound.”

Angelica sinensis FMT = test: FMT enzyme assay of transgenic poplar leaf extracts; assay type: biochemical; conditions: extracts from transgenic hybrid poplar expressing YFP-FMT; none in wild type or no enzyme control; FIG. 10B
From the text: Hybrid poplar (Populus alba×grandidentata) was transformed using Agrobacterium tumefaciens EHA105 employing a common leaf disk inoculation. Two constructs were created to drive the expression of FMT in poplar: 1) 35S::YFP-FMT (cauliflower mosaic virus ubiquitous 35S promoter with an N-terminal tagged Yellow Fluorescent Protein), and 2) CesA8::YFP-FMT (poplar xylem-specific secondary cell wall specific cellulose synthase 8 promoter with an N-terminal tagged Yellow Fluorescent Protein). The binary plasmids were inserted into EHA105 using the freeze-thaw technique, and incubated overnight in liquid Woody Plant Media (WPM) supplemented with 100 μM acetosyringone. Leaf disks were cut and co-cultured with EHA105 for one hour at room temperature, blotted dry and plated abaxailly onto WPM supplemented with 0.1 μM each α-naphthalene acetic acid (NAA), 6-benzylaminopurine (BA), and thiadiazuron (TDZ) and solidified with 3% (w/v) agar and 1.1% (w/v) phytagel (WPM 0.1/0.1/0.1). […]
Purification of YFP-FMT was via GFPtrap_A (Chromotek) following the manufactures guidelines. […] These samples were analyzed by western blot and the UPLC method described in the Examples above. Formation of coniferyl ferulate was also detected by comparison of the UPLC traces of leaf extracts with authentic coniferyl ferulate.

[3] = system: Angelica sinensis feruloyl-CoA:monolignol transferase; test: FMT enzyme assay of transgenic Arabidopsis stems; assay type: biochemical; conditions: none with empty vector, FIG. 11B
From the text: Arabidopsis were transformed by standard procedures with the Angelica sinensis feruloyl-CoA:monolignol transferase nucleic acids described herein. […] FMT expression was detected by Reverse Transcriptase PCR of […] isolated from the transgenic Arabidopsis leaves. Enzymatic activity by the expressed FMT was detected using the assay described in Example 1.

Hibiscus cannabinus FMT = test: FMT enzymatic assay with purified Kenaf FMT (UPLC detection of coniferyl ferulate); assay type: biochemical; conditions: Ni2+ column fractions 29 and 30; 1 mM feruloyl CoA, 1 mM coniferyl alcohol, pH 6, 45 min; FIG. 12B
Procedure: The feruloyl CoA, p-coumaroyl CoA, and caffeoyl CoA substrates used in the FMT assay were enzymatically synthesized using the tobacco 4-coumarate CoA-ligase (4CL) with a c-terminal HIS tag in pCRT7/CT TOPO. Following a method modified from Beuerle and Pichersky (2001) 3.3 mg of ferulic acid, coumaric acid or caffeic acid, 2 mg coenzyme A, and 6.9 mg ATP were 50 mM Tris-hydrochloride pH 8, 2.5 mM magnesium chloride in a final volume of 10 ml. The reaction was started by adding 0.25 mg 4CL protein, purified as described by the method of Beurerle and Pichershy. After a five-hour incubation at room temperature, an additional 6.9 mg ATP, 2 mg coenzyme A, and 0.25 mg purified 4CL were added and the reaction was incubated overnight. […]
The FMT activity assay contained 100 mM sodium phosphate buffer pH 6, 1 mM dithiothreitol (DTT), 1 mM feruloyl CoA, 1 mM coniferyl alcohol, 0.5 μg of purified Kenaf FMT protein and deionized water to a volume of 50 μLL. […] The flow-through was analyzed using an Acquity Ultra Performance LC with an Acquity UPLC BEH C18 1.7 μm 2.1×100 mm column and the Acquity Console and Empower 2 Software, all from Waters Corporation. […] Samples were analyzed using the following gradient conditions, 13% B, for 5 minutes, 1 minute linear gradient to 42% B, held for 4 minutes, 1 minute linear gradient to 100% B, held for 1 minute and 3 minutes at 13% B with a flow rate of 0.3 ml/minute. […]

Molecule	product formed from acyl-CoA donor substrate [1]	enzyme activity with monolignol as acyl acceptor substrate [1]	other results
CC(C)(COP(=O)(O)OP(=O)(O)OC[C@H]1O[C@@H](n2cnc3c(N)ncnc32)[C@H](O)[C@@H]1OP(=O)(O)O)[C@@H](O)C(=O)NCCC(=O)NCCSC(=O)/C=C/c1ccc(O)cc1 [p-coumaroyl-CoA]	very little product	–	–
COc1cc(/C=C/COC(=O)/C=C/c2ccc(O)c(OC)c2)ccc1O [coniferyl ferulate]	–	–	solubility of product in water / assay mixture [2]: mostly insoluble in water; also recorded: partially insoluble
COc1cc(/C=C/C(=O)SCCNC(=O)CCNC(=O)[C@H](O)C(C)(C)COP(=O)(O)OP(=O)(O)OC[C@H]2O[C@@H](n3cnc4c(N)ncnc43)[C@H](O)[C@@H]2OP(=O)(O)O)ccc1O [feruloyl-CoA]	substantial product	–	–
COc1cc(/C=C/CO)ccc1O [coniferyl alcohol]	–	active	–
CC(C)(COP(=O)(O)OP(=O)(O)OC[C@H]1O[C@@H](n2cnc3c(N)ncnc32)[C@H](O)[C@@H]1OP(=O)(O)O)[C@@H](O)C(=O)NCCC(=O)NCCSC(=O)/C=C/c1ccc(O)c(O)c1 [caffeoyl-CoA]	very little product	–	–
COc1cc(/C=C/CO)cc(OC)c1O [sinapyl alcohol]	–	active	–
OC/C=C/c1ccc(O)cc1 [p-coumaryl alcohol]	–	active	–
B1	–	–	FMT activity in leaf extracts (product peak at retention time of authentic coniferyl ferulate) (Angelica sinensis FMT): FMT activity was identified; FMT activity in ground stems (coniferyl ferulate detected) [3]: enzymatically active
B2	–	–	FMT activity: production of coniferyl ferulate from coniferyl alcohol and feruloyl-CoA (Hibiscus cannabinus FMT): production of coniferyl ferulate (3) is visible
